Data on nine compounds can be found in US5215971A, “Antiviral pharmaceutical composition comprising 5-substituted pyrimidine nucleosides” (priority 1986, dated 1993).

Where two headings read alike, the source gives them in different places. Bounds are passed on as bounds.

In data set [1] the test system is HIV (HTLV-IIIB) in H9 cells. As to the kind of experiment: Inhibition of human immunodeficiency virus multiplication in cell culture (HIV infection of H9 cells). It counts as cell-based. To be noted: Human immunodeficiency virus 1, 6-7 days, HIV antigen containing cells by immunofluorescence, read-out: Concentration for 50% inhibition (IC50) of human immunodeficiency virus multiplication in cell culture. As to the method: H9 cells, 10^5 cells per well on a 24 well plate, suspended in 2 ml RPMI-medium containing 10% fetal calf serum, 100 μg/ml penicillin, 10 μg/ml streptomycin sulfate and 2 μg/ml polybrene are exposed to HIV (HTLV-IIIB) and different concentrations of the inhibiting compounds. The plates are incubated at 37° C. in 5% CO2 for 6-7 days. The contents in each well is then homogenized with a pipette and transferred to a centrifuge tube. After centrifugation for 10 min at 1500 rpm the supernatent is removed and the cell pellet is analyzed by fixing in methanol on glass plates. Human HIV positive serum diluted 1:80 or 1:160 is added and incubated for 30 min at 37°. The plate is then washed with phosphate-buffered saline (PBS) containing Ca^2+ and Mg^2+. Sheep antihuman conjugate (FITC) is added and after a new incubation the plate is again washed with PBS. Contrast staining is done with Evans blue and after drying the frequency of HIV antigen containing cells is determined in a microscope.

For data set [2], the target named is Duck hepatitis virus polymerase (Duck hepatitis B virus, UniProt P03162). As to the kind of experiment: Inhibition of duck hepatitis B virus polymerase (reverse transcriptase) using DNA and RNA templates. It counts as biochemical. The note with it: compounds used as 5'-triphosphates. The source says:
(§1) There is no cell culture assay which can be used to determine the efficiacy of compounds against hepatitis B virus. However, the hepatitis B virus encodes a reverse transcriptase, Summer and Mason, Cell 29 (1982) 403-415, obligatory for hepatitis b virus replication. This enzyme, which is also a consituent of the hepatitis B virus particles, can be used to evaluate the inhibitory activity against hepatitis B virus of nucleoside analogues provided that these compounds are used as their metabolic products, 5'-triphosphates. […] The hepatitis B virus reverse transcriptase can, as all reverse transcriptases, use both RNA and DNA templates, and included in Table 2 is also the inhibition of duck hepatitis B virus polymerase using both DNA and RNA templates.
(§2) The assays were performed as described in Tao et al. Hepatitis B virus was for a long time considered to be a DNA virus with a viral DNA polymerase being part of the virus particles. However, it was discovered that the hepatitis B virus DNA polymerase activity was due to a reverse transcriptase and that this virus should be regarded as a retrovirus which, in contrast to other retroviruses, uses its DNA phase as genetic material in the virus particles. Summers and Mason. Hepatitis B viruses are therefore not related to DNA viruses such as herpes-viruses or adeno-virus, but rather are related to retroviruses such as HIV.

The target in data set [3] is Hepatitis B virus polymerase (Hepatitis B virus genotype D subtype ayw, UniProt P03156). Nature of the data set: Inhibition of hepatitis B virus polymerase (reverse transcriptase) using a DNA template. To be noted: compounds used as 5'-triphosphates. It counts as biochemical.
Text: as §1, §2

For data set [4] the following is noted: monkeys, Tao et al., cited from earlier work; for absorption: oral; for Elimination half-lives: range given for both compounds together.
Setting [5] is: DNA template, read-out: IC50, duck hepatitis virus polymerase, DNA template.
Setting [6] is: RNA template, read-out: IC50, duck hepatitis virus polymerase, RNA template.

Hepatitis B virus polymerase, sequence (P03156 whole entry): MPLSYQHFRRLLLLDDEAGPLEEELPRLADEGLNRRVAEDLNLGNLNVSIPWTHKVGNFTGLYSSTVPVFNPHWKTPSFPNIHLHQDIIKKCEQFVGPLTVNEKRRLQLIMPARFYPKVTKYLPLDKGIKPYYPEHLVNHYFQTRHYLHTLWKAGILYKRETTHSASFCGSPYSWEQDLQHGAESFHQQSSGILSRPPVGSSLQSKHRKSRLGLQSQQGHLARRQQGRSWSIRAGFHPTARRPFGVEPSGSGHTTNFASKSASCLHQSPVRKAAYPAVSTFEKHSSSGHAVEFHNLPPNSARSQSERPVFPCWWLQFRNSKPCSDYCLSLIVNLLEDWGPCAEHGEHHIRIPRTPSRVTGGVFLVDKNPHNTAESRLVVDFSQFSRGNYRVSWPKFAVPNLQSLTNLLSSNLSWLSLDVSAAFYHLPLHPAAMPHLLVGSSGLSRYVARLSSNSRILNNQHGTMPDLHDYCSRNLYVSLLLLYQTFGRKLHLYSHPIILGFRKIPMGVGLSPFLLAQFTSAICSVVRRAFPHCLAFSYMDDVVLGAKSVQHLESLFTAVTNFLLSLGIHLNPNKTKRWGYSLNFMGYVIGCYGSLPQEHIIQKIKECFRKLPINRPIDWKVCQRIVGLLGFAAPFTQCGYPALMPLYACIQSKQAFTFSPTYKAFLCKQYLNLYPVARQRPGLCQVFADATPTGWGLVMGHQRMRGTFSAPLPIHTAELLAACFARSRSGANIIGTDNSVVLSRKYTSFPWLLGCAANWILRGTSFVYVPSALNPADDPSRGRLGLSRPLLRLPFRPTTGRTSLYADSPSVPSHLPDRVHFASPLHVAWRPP
Duck hepatitis virus polymerase, sequence (P03162 whole entry): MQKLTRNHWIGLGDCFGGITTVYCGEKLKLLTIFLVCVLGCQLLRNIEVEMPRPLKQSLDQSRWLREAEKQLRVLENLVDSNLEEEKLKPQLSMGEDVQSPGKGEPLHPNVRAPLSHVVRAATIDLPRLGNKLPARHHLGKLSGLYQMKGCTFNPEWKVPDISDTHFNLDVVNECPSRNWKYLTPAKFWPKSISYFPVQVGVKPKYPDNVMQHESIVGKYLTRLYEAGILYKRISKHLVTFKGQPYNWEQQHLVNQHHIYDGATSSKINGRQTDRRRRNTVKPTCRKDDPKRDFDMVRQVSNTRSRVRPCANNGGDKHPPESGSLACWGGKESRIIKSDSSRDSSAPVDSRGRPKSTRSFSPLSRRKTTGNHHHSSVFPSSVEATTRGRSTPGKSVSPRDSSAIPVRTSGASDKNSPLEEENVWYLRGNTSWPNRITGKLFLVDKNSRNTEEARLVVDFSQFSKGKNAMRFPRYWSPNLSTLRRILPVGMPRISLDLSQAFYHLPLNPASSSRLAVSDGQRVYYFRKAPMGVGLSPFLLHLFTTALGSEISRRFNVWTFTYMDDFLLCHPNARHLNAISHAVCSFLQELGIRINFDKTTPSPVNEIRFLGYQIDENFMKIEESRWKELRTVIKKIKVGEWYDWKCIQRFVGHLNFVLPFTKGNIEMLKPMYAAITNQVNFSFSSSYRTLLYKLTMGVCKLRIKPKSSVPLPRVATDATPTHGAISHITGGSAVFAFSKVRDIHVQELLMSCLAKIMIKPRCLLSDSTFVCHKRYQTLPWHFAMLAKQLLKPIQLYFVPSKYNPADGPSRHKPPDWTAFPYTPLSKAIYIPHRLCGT

`C=C(C)c1cn([C@H]2C[C@H](O)[C@@H](CO)O2)c(=O)[nH]c1=O` [5-(1-isopropenyl)-2'-deoxyuridine]: in data set [1], the IC50 lay within 1 to 10 µM.

Turning to `O=c1[nH]c(=O)n([C@H]2C[C@H](O)[C@@H](CO)O2)cc1CO` [5-hydroxymethyl-2'-deoxyuridine], the IC50 in data set [2] (setting [5]) was 0.5 µM; in data set [2] (setting [6]), 0.24 µM; in data set [3], 0.25 µM; in data set [1], below 1 µM.

Consider `CCc1cn([C@@H]2O[C@H](CO)[C@@H](O)[C@@H]2O)c(=O)[nH]c1=O` [1-(β-D-arabinofuranosyl)-5-ethyluracil], for which the IC50 in data set [1] was 2 µM.

In the case of `O=c1[nH]c(=O)n([C@H]2C[C@H](O)[C@@H](CO)O2)cc1C1CC1` [5-cyclopropyl-2'-deoxyuridine], the IC50 in data set [1] was below 1 µM.

Take `CC=Cc1cn([C@H]2C[C@H](O)[C@@H](CO)O2)c(=O)[nH]c1=O` [5-(1-propenyl)-2'-deoxyuridine]: the IC50 in data set [2] (setting [5]) was 0.11 µM; in data set [2] (setting [6]), 0.15 µM; in data set [3], 0.1 µM; in data set [1], below 1 µM. Further, in data set [4], the absorption result is on record as “moderately well absorbed”. The Elimination half-lives in data set [4] was 1.2 to 1.8 h.

In the case of `CCc1cn([C@H]2C[C@H](O)[C@@H](CO)O2)c(=O)[nH]c1=O` [5-Ethyl-2'-deoxythymidine], the IC50 was 0.9 µM in data set [2] (setting [5]), 0.74 µM in data set [2] (setting [6]) and 0.25 µM in data set [3].

With `CCc1cn([C@H]2C[C@H](O)[C@@H](CO)O2)c(=O)[nH]c1=O` [5-ethyl-2'-deoxyuridine], in data set [1], the IC50 stood at 1 µM.

With `C=C(C)c1cn([C@@H]2O[C@H](CO)[C@@H](O)[C@@H]2O)c(=O)[nH]c1=O` [1-(β-D-arabinofuranosyl)-5-isopropenyluracil], the IC50 in data set [1] stood at 2 µM.

In the case of `CC=Cc1cn([C@@H]2O[C@H](CO)[C@@H](O)[C@@H]2O)c(=O)[nH]c1=O` [1-(β-D-arabinofuranosyl)-5-(1-propenyl)-uracil], the IC50 was 0.34 µM in data set [2] (setting [5]), 0.54 µM in data set [2] (setting [6]), 0.24 µM in data set [3] and below 1 µM in data set [1]. Further, the absorption result in data set [4] is “moderately well absorbed”. The Elimination half-lives in data set [4] was 1.2 to 1.8 h.
